Measured values reported in ChEMBL document CHEMBL3734684, “Identification and optimisation of a series of tetrahydrobenzotriazoles as metabotropic glutamate receptor 5-selective positive allosteric modulators that improve performance in a preclinical model of cognition” (Bioorg Med Chem Lett, 2015).
Values after ≈ are worked out from the molar mass of the structure shown. Each block holds one molecule with its values, some of them ahead of it. Active and inactive are the calls of the source. The calls are words filed in the database; no cut-off is given here.

What was measured:
[1] = Fraction unbound in rat brain; type: ADME, tissue-based
[2] = Clearance in Sprague-Dawley rat at 0.5 mg/kg, iv; type: ADME, organism-based; conditions: in vivo
[3] = Cmax in Sprague-Dawley rat plasma at 3 mg/kg, po; type: ADME, organism-based; design: dose 3 mg/kg, route oral
MDCK [4] = test: Permeability from apical to basolateral side in MDCK cells at 1 uM; type: ADME, cell-based, Canis lupus familiaris; conditions: dog
[5] = Intrinsic clearance in rat liver microsomes at 3 uM; type: ADME; conditions: read-out: CLH
[6] = target: Metabotropic glutamate receptor 5 (Rattus norvegicus) (UniProt P31424); test: Positive allosteric modification of mGlu5 receptor in rat cortical astrocytes assessed as maximal leftward shift in the EC50 of glutamate induced response upto 25 uM; type: cell-based
Metabotropic glutamate receptor 5 (Rattus norvegicus), sequence (P31424 21-1203 limits assumed): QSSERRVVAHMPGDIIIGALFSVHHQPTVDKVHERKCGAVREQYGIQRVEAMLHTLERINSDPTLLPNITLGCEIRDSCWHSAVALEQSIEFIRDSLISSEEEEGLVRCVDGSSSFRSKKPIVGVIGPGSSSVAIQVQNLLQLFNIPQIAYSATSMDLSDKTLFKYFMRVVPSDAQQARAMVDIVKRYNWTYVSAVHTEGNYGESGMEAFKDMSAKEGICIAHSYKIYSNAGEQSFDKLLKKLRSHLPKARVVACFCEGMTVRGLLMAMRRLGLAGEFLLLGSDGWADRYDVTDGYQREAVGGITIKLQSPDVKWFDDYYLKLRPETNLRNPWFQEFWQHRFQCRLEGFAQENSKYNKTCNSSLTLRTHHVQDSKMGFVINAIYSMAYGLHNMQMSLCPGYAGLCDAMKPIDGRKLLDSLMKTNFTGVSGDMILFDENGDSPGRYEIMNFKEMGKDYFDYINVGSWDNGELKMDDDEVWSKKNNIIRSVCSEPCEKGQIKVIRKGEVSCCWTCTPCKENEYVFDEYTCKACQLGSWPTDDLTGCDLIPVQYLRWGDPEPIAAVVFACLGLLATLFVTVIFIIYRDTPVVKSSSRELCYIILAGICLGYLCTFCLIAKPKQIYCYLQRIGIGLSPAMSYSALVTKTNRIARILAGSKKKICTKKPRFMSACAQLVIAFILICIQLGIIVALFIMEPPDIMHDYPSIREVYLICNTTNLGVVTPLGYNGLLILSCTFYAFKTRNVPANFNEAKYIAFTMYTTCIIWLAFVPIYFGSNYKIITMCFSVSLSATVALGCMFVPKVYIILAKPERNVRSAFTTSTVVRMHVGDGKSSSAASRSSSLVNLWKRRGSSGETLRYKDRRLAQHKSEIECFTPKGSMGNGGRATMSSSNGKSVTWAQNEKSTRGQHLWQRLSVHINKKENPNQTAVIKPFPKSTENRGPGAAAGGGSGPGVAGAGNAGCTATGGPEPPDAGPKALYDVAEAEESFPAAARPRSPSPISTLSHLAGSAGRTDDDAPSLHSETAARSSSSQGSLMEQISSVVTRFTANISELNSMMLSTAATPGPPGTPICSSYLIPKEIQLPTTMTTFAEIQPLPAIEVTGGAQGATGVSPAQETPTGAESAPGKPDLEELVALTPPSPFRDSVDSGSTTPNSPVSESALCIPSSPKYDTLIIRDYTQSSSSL

[7] = target: T1, Metabotropic glutamate receptor 5 (Homo sapiens, UniProt P41594); test: Positive allosteric modification of human recombinant mGlu5 receptor expressed in U2OS cells assessed as Ca2+ flux upto 25 uM relative to glutamate; type: functional, cell-based
Target sequence in this assay (P41594 21-1212 limits assumed): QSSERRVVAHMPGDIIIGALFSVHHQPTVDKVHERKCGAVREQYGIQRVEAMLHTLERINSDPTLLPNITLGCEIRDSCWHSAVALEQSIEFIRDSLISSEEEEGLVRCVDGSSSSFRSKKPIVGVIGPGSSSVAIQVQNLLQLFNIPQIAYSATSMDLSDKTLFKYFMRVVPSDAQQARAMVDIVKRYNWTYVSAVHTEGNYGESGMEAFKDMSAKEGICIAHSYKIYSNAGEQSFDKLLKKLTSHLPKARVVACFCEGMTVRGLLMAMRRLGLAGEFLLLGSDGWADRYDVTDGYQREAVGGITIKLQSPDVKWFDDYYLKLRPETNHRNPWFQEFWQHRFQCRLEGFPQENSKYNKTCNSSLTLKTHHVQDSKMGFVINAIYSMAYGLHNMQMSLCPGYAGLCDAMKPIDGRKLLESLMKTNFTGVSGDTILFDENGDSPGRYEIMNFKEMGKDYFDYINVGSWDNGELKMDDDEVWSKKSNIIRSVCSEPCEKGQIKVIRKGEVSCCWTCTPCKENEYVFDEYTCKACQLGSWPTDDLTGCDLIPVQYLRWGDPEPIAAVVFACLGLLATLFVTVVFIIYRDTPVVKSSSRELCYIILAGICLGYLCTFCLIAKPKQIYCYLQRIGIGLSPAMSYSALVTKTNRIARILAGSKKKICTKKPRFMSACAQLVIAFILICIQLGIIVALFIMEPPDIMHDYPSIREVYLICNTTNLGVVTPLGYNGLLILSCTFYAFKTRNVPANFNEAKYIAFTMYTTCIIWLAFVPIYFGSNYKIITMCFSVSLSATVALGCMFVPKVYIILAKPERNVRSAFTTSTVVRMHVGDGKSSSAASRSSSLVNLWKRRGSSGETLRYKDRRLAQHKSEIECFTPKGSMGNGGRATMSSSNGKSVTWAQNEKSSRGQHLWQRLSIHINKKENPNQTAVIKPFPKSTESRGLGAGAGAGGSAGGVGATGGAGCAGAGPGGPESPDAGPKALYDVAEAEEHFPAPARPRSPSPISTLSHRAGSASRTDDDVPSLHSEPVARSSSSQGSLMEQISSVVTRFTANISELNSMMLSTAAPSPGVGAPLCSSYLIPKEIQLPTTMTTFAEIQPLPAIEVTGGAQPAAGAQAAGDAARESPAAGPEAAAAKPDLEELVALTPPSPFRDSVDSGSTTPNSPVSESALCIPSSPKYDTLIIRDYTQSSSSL

Rattus norvegicus = test: Cognitive enhancing effect in po dosed rat measured after 4 hrs by novel object recognition test; type: functional; conditions: for minimal effective dose: Rattus norvegicus, po, 4 h, read-out: MED
Homo sapiens [8] = species on record: Homo sapiens; test: Negative allosteric modification of mGlu receptor (unknown origin)
[9] = target: T1, Metabotropic glutamate receptor 5; test: Positive allosteric modification of human recombinant mGlu5 receptor expressed in U2OS cells assessed as potentiation of glutamate-induced Ca2+ flux in presence of EC20 glutamate; type: functional, cell-based
Target sequence in this assay (P41594 whole entry): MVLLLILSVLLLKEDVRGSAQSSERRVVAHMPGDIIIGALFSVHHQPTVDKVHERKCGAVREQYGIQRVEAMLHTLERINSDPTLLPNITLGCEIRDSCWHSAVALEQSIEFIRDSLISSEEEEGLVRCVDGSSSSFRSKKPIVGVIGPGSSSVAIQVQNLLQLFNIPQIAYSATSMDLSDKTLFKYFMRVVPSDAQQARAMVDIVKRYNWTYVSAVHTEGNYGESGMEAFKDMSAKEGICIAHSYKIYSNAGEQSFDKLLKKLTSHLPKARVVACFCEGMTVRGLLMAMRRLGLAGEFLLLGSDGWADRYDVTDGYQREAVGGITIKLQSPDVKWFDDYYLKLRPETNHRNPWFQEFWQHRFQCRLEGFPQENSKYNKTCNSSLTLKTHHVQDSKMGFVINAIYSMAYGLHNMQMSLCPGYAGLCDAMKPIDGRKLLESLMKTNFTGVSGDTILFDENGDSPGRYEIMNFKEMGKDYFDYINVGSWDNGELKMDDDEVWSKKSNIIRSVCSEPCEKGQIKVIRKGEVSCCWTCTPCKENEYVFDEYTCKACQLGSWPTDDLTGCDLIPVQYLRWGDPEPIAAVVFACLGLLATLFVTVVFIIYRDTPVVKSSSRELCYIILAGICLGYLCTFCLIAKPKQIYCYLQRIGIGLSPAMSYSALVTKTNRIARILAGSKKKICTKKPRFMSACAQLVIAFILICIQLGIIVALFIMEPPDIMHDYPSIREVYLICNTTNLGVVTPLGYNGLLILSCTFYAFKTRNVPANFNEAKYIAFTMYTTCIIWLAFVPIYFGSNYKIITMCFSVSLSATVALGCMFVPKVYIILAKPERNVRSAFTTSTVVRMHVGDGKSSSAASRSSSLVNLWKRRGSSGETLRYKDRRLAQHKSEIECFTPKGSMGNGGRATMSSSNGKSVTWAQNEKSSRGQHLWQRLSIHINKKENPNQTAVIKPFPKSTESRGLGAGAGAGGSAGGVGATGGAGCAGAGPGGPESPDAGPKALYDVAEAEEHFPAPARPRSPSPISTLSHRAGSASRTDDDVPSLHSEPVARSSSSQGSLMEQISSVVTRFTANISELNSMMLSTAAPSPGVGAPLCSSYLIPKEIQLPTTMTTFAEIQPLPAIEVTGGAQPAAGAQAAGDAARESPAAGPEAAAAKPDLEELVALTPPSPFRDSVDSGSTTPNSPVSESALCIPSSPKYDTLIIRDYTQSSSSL

Homo sapiens [10] = species on record: Homo sapiens; test: Positive allosteric modification of mGlu receptor (unknown origin)
MDCK [11] = test: Efflux ratio of permeability from apical to basolateral side to basolateral to apical side in MDCK cells; type: ADME, cell-based, Canis lupus familiaris; conditions: dog
[12] = Brain to plasma ratio in Sprague-Dawley rat at 3 mg/kg, po; type: ADME, organism-based; conditions: brain and plasma, read-out: BPR
[13] = Volume of distribution at steady state in Sprague-Dawley rat at 0.5 mg/kg, iv; type: ADME, organism-based; conditions: in vivo, read-out: Vdss
[14] = Kinetic solubility of compound in phosphate buffer saline at pH 7.4; type: physicochemical; conditions: for solubility kinetic: phosphate buffered saline, read-out: Kinetic_solubility
[15] = Oral bioavailability in Sprague-Dawley rat at 3 mg/kg; type: ADME, organism-based; conditions: in vivo
[16] = Intrinsic clearance in human liver microsomes at 3 uM; type: ADME; conditions: read-out: CLH
[17] = Tmax in Sprague-Dawley rat at 3 mg/kg, po; type: ADME, organism-based; conditions: in vivo
[18] = Inhibition of CYP450 (unknown origin); type: ADME; conditions: human
Homo sapiens [19] = species on record: Homo sapiens; test: Agonist activity at mGlu receptor (unknown origin)
[20] = Half life in Sprague-Dawley rat at 3 mg/kg, po; type: ADME, organism-based; conditions: in vivo
[21] = Volume of distribution at steady state in Sprague-Dawley rat at 0.25 mg/kg, iv; type: ADME, organism-based; conditions: in vivo, read-out: Vdss
[22] = Clearance in Sprague-Dawley rat at 0.25 mg/kg, iv; type: ADME, organism-based; conditions: in vivo
[23] = target: Voltage-gated inwardly rectifying potassium channel KCNH2 (Homo sapiens, UniProt Q12809); test: Inhibition of human ERG
Voltage-gated inwardly rectifying potassium channel KCNH2, sequence (Q12809 whole entry): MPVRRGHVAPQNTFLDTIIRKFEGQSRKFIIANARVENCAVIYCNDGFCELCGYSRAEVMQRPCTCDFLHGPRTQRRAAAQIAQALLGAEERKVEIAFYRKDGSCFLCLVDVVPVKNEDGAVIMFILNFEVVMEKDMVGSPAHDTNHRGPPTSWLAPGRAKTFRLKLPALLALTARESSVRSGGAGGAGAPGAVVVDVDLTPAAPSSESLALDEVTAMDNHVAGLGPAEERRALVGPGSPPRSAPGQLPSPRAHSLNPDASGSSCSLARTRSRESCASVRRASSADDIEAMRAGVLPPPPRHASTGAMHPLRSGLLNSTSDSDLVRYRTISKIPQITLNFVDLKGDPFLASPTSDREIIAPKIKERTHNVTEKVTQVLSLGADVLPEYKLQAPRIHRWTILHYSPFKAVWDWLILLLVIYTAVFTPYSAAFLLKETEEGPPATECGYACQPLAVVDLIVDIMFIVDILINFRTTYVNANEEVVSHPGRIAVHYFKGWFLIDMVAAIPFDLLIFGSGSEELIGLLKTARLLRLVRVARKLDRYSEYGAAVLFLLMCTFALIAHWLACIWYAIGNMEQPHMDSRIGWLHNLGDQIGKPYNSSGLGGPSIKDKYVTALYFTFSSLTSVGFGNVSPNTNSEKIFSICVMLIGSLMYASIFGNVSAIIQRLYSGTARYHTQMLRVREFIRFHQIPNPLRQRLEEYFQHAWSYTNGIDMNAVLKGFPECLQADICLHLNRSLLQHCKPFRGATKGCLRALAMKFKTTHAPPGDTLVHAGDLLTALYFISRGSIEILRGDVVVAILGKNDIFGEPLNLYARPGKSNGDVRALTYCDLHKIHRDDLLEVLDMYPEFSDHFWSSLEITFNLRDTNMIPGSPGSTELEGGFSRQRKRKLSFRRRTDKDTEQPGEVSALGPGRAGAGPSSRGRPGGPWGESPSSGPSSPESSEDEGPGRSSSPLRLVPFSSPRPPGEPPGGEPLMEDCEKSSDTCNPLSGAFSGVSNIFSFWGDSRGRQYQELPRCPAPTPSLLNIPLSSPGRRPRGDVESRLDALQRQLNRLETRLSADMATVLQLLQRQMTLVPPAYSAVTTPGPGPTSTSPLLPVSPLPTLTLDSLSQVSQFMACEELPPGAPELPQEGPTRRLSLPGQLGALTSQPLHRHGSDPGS

- fraction unbound [1]: 0.013
- clearance [2]: 11 mL/min/kg
- Cmax [3]: 438 nM
- permeability (MDCK [4]): 42 ×10⁻⁶ cm/s
- microsomal CLint at 3 µM [5]: 20 µL/min/mg
- fold change (FC) [6]: 4
- %max [7]: 98%
- Activity (Homo sapiens [8]): inactive
- EC50 [9]: 5.01 nM
- Activity (Homo sapiens [10]): inactive
- Ratio (MDCK [11]): 0.8
- Kp [12]: 2
- Vd [13]: 4.3 L/kg
- solubility kinetic [14]: 6 µM (≈ 2.05 µg/mL)
- bioavailability [15]: 46%
- microsomal CLint at 3 µM [16]: 18 µL/min/mg
- Tmax [17]: 4 h
- inhibition (INH) [18]: Not Active
- Activity (Homo sapiens [19]): inactive
- half-life [20]: 6.5 h
Structure (SMILES): CC(C)(C)n1nnc2c1CCC(c1nc(-c3ccc(F)cc3)no1)C2 (stereo not given)
- minimal effective dose (Rattus norvegicus): 0.3 mg/kg

- fraction unbound [1]: 0.003
- fold change (FC) [6]: 3
- %max [7]: 106%
- EC50 [9]: 15.8 nM
- Kinetic_solubility ([14]; buffer): Insoluble
Structure (SMILES): Fc1ccc(-c2noc(C3CCc4c(nnn4-c4ccc(F)cc4)C3)n2)cc1 (stereo not given)

- microsomal CLint at 3 µM [5]: 120 µL/min/mg
- fold change (FC) [6]: 7
- %max [7]: 77%
- EC50 [9]: 20 nM
Structure (SMILES): CC(C)(C)n1nnc2c1CCC(c1nc(Cc3ccc(F)cc3)no1)C2 (stereo not given)

- fold change (FC) [6]: 8
- %max [7]: 108%
- EC50 [9]: 31.6 nM
Structure (SMILES): CC(C)(C)Cn1nnc2c1CCC(c1nc(-c3ccc(F)cc3)no1)C2 (stereo not given)

- EC50 [9]: 398 nM
Structure (SMILES): Fc1ccc(-c2noc(C3CCc4c(nnn4C4CCCC4)C3)n2)cc1 (stereo in doubt; 10) [listing 1 of 2 here]

- fraction unbound [1]: 0.015
- Vd [21]: 2.5 L/kg
- Cmax [3]: 891 nM
- permeability (MDCK [4]): 43 ×10⁻⁶ cm/s
- microsomal CLint at 3 µM [5]: 6 µL/min/mg
- fold change (FC) [6]: 3
- %max [7]: 71%
- Activity (Homo sapiens [8]): inactive
- EC50 [9]: 15.8 nM
- Activity (Homo sapiens [10]): inactive
- Ratio (MDCK [11]): 0.6
- Kp [12]: 3.2
- clearance [22]: 4 mL/min/kg
- solubility kinetic [14]: 5.6 µM (≈ 1.97 µg/mL)
- bioavailability [15]: 45%
- microsomal CLint at 3 µM [16]: 9 µL/min/mg
- Tmax [17]: 6 h
- inhibition (INH) [18]: Not Active
- Activity (Homo sapiens [19]): inactive
- half-life [20]: 7 h
Structure (SMILES): CC(C)(C#N)n1nnc2c1CCC(c1nc(-c3ccc(F)cc3)no1)C2 (stereo not given)
- LED (Rattus norvegicus): 0.03 mg/kg

- EC50 [9]: > 25100 nM
Structure (SMILES): Fc1ccc(-c2noc(C3CCc4c(nnn4-c4ccc(F)nc4)C3)n2)cc1 (stereo not given)

- microsomal CLint at 3 µM [5]: 22 µL/min/mg
- fold change (FC) [6]: 4
- %max [7]: 96%
- EC50 [9]: 398 nM
Structure (SMILES): Fc1ccc(-c2noc(C3CCc4c(nnn4C4CCOC4)C3)n2)cc1 (stereo not given)

- fold change (FC) [6]: 5
- %max [7]: 85%
- EC50 [9]: 5.01 nM
Structure (SMILES): CC(C)(C)n1nnc2c1CCC(c1noc(-c3ccc(F)cc3)n1)C2 (stereo not given)

- fold change (FC) [6]: 10
- %max [7]: 103%
Structure (SMILES): Fc1ccc(-c2noc(C3CCc4c(nnn4C4CCCC4)C3)n2)cc1 (stereo in doubt; 9) [listing 1 of 2 here]

- fold change (FC) [6]: 7
- %max [7]: 103%
- EC50 [9]: 10 nM
Structure (SMILES): CC1(n2nnc3c2CCC(c2nc(-c4ccc(F)cc4)no2)C3)CCOCC1 (stereo not given)

- %max [7]: 91%
- EC50 [9]: 200 nM
Structure (SMILES): CC(C)(C)n1nnc2c1CCC(c1nc(C3CCCCC3)no1)C2 (racemic)

- microsomal CLint at 3 µM [5]: 146 µL/min/mg
- EC50 [9]: 31.6 nM
Structure (SMILES): Fc1ccc(-c2noc(C3CCc4c(nnn4C4CCCC4)C3)n2)cc1 (stereo in doubt; 9) [listing 2 of 2 here]

- %max [7]: 91%
- EC50 [9]: 3980 nM
Structure (SMILES): CN1CCC(n2nnc3c2CCC(c2nc(-c4ccc(F)cc4)no2)C3)CC1 (racemic)

- %max [7]: 51%
- EC50 [9]: 398 nM
Structure (SMILES): Fc1ccc(-c2nc(-c3ccc4c(c3)nnn4C3CCCC3)no2)cc1

- %max [7]: 98%
- EC50 [9]: 398 nM
Structure (SMILES): CC(C)n1nnc2c1CCC(c1nc(-c3ccc(F)cc3)no1)C2 (racemic)

- %max [7]: 68%
- EC50 [9]: 1000 nM
Structure (SMILES): CN(C)c1ccc(-c2noc(C3CCc4c(nnn4C(C)(C)C)C3)n2)cc1 (racemic)

- %max [7]: 29%
- EC50 [9]: 1260 nM
Structure (SMILES): CC(C)(C)n1nnc2c1CCC(c1nc(N3CCOCC3)no1)C2 (racemic)

- fold change (FC) [6]: 6
- %max [7]: 87%
- EC50 [9]: 79.4 nM
Structure (SMILES): CC(C)(C)n1nnc2c1CCC(c1nc(-c3ccc(C#N)cc3)no1)C2 (stereo not given)

- %max [7]: 67%
- EC50 [9]: 1580 nM
Structure (SMILES): Cc1ccc(-c2noc(C3CCc4c(nnn4C(C)(C)C)C3)n2)cn1 (racemic)

- %max [7]: 53%
- EC50 [9]: 3160 nM
Structure (SMILES): CC(C)(C)n1nnc2c1CCC(c1nnc(-c3ccc(F)cc3)o1)C2 (racemic)

- fold change (FC) [6]: 4
- %max [7]: 78%
Structure (SMILES): Fc1ccc(-c2noc(C3CCc4c(nnn4C4CCCC4)C3)n2)cc1 (stereo in doubt; 10) [listing 2 of 2 here]

- fraction unbound [1]: 0.056
- clearance [2]: 14 mL/min/kg
- Cmax [3]: 1950 nM
- permeability (MDCK [4]): 46 ×10⁻⁶ cm/s
- microsomal CLint at 3 µM [5]: 20 µL/min/mg
- fold change (FC) [6]: 3
- %max [7]: 80%
- Activity (Homo sapiens [8]): inactive
- EC50 [9]: 50.1 nM
- Activity (Homo sapiens [10]): inactive
- Ratio (MDCK [11]): 0.8
- Kp [12]: 1.4
- Vd [13]: 1.9 L/kg
- solubility kinetic [14]: > 100 µM
- bioavailability [15]: 114%
- microsomal CLint at 3 µM [16]: 4 µL/min/mg
- Tmax [17]: 2.7 h
- inhibition (INH) [18]: Not Active
- Activity (Homo sapiens [19]): inactive
- half-life [20]: 2.9 h
Structure (SMILES): CC(C)(C)n1nnc2c1CCC(n1cnc(-c3ccc(F)cc3)n1)C2 (stereo not given)
- minimal effective dose (Rattus norvegicus): 0.3 mg/kg
- IC50 [23]: 6310 nM

- %max [7]: 66%
- EC50 [9]: 1000 nM
Structure (SMILES): CC(C)Cc1noc(C2CCc3c(nnn3C(C)(C)C)C2)n1 (racemic)
